# According to patent US20050107430A1, “Antimicrobial and antiviral compounds” (priority 2003, published 2005):
# Read-outs that look alike come from different tables or passages of the source.
# System: Mycobacterium tuberculosis
# Settings: resistant strains
structure (smiles),measurement,setting,value
"c1ccc2c(c1)ccc1c3ccc(NCCCCN4CCCCC4)cc3ccc21 [Tx-5, N-(2′-chrysenyl)-4-(1′-piperidinyl)-butane-1,4-diamine]","MIC, M. tuberculosis resisant. strains",2 wk,2 µg/mL
same,"MIC, M. tuberculosis resisant. strains",4 wk,4 µg/mL
